One experiment addresses JAK1 (Homo sapiens (Human), UniProt P23458). Briefly: Jak Biochemical HTRF Assay, JAK1. As to conditions: HTRF biochemical assay, GST-tagged catalytic domain; top concentration tested […]; read-out: JAK1 IC50. From the text:
(§1) Jak Biochemical HTRF Assay Protocol
(§2) Subsequent reagent additions employed an Agilent Bravo.

The next experiment deals with JAK2 (Homo sapiens (Human), UniProt O60674). Briefly: Jak Biochemical HTRF Assay, JAK2. The note with it: HTRF biochemical assay, GST-tagged catalytic domain; top concentration tested […].
From the text: as §1, §2

Data on 20 molecules can be found in US9328099B2, “Cyanomethylpyrazole carboxamides as janus kinase inhibitors” (Merck Sharp & Dohme Corp., priority 2011, dated 2016).

SMILES strings stand for the structures. A value given as a limit tells only on which side of the number the result lay.

Sequence of JAK2 (O60674 849-1124): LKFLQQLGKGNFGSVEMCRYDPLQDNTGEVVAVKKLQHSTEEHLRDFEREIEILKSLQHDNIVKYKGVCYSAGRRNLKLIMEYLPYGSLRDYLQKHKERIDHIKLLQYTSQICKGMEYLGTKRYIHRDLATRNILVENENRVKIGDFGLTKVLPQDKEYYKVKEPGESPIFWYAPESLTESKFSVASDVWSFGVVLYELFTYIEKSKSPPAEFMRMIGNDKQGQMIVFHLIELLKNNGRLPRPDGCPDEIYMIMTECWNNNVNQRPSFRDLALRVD
Sequence of JAK1 (P23458 875-1153): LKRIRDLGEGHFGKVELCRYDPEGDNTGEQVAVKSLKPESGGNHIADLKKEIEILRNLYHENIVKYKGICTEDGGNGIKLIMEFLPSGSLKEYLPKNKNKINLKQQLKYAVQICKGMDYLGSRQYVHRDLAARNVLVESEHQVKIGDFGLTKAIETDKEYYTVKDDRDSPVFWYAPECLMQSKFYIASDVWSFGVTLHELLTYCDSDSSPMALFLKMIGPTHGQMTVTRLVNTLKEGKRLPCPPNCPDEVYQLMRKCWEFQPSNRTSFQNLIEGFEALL

Turning to `N#CCC1(n2cc(C(N)=O)c(Nc3ccnc(F)c3)n2)CCN(Cc2ccccc2)CC1` [Example 22-8, 1-[1-benzyl-4-(cyanomethyl)piperidin-4-yl]-3-[(2-fluoropyridin-4-yl)amino]-1H-pyrazole-4-carboxamide], the IC50 at JAK1 was 0.1 nM; on JAK2, 6 nM.

Take `N#CCC1(n2cc(C(N)=O)c(Nc3ccnc(F)c3)n2)CCN(Cc2ccccc2F)CC1` [Example 22-9, 1-[4-(cyanomethyl)-1-(2-fluorobenzyl)piperidin-4-yl]-3-[(2-fluoropyridin-4-yl)amino]-1H-pyrazole-4-carboxamide]: the IC50 on JAK1 stood at 0.06 nM; on JAK2 it was 2 nM.

`N#CCC1(n2cc(C(N)=O)c(Nc3ccnc(F)c3)n2)CCN(Cc2cccc(F)c2)CC1` [Example 22-10, 1-[4-(cyanomethyl)-1-(3-fluorobenzyl)piperidin-4-yl]-3-[(2-fluoropyridin-4-yl)amino]-1H-pyrazole-4-carboxamide]: the IC50 is 0.07 nM at JAK1 and 3 nM against JAK2.

As to `N#CCC1(n2cc(C(N)=O)c(Nc3ccnc(F)c3)n2)CCN(Cc2ccc(F)cc2)CC1` [Example 22-11, 1-[4-(cyanomethyl)-1-(4-fluorobenzyl)piperidin-4-yl]-3-[(2-fluoropyridin-4-yl)amino]-1H-pyrazole-4-carboxamide], the half-maximal inhibitory concentration (IC50) on JAK1 is 0.1 nM; on JAK2, 4 nM.

For the molecule `N#CCC1(n2cc(C(N)=O)c(Nc3ccnc(F)c3)n2)CCN(Cc2cn3ccccc3n2)CC1` [Example 22-12, 1-[4-(cyanomethyl)-1-(imidazo[1,2-a]pyridin-2-ylmethyl)piperidin-4-yl]-3-[(2-fluoropyridin-4-yl)amino]-1H-pyrazole-4-carboxamide], the IC50 on JAK1 was 124 nM; on JAK2, over 1500 nM.

As for `N#CCC1(n2cc(C(N)=O)c(Nc3ccnc(F)c3)n2)CCN(Cc2ccn[nH]2)CC1` [Example 22-13, 1-[4-(cyanomethyl)-1-(1H-pyrazol-5-ylmethyl)piperidin-4-yl]-3-[(2-fluoropyridin-4-yl)amino]-1H-pyrazole-4-carboxamide], the IC50 came out at 3 nM on JAK1 and 39 nM against JAK2.

Turning to `N#CCC1(n2cc(C(N)=O)c(Nc3ccnc(F)c3)n2)CCN(Cc2cnccn2)CC1` [Example 22-14, 1-[4-(cyanomethyl)-1-(pyrazin-2-ylmethyl)piperidin-4-yl]-3-[(2-fluoropyridin-4-yl)amino]-1H-pyrazole-4-carboxamide], the IC50 at JAK1 stood at 0.6 nM; against JAK2, 28 nM.

For `Cc1ncc(CN2CCC(CC#N)(n3cc(C(N)=O)c(Nc4ccnc(F)c4)n3)CC2)s1` [Example 22-15, 1-{4-(cyanomethyl)-1-[(2-methyl-1,3-thiazol-5-yl)methyl]piperidin-4-yl}-3-[(2-fluoropyridin-4-yl)amino]-1H-pyrazole-4-carboxamide], the IC50 was 1 nM at JAK1 and 18 nM on JAK2.

Turning to `CC1(C)CC(CN2CCC(CC#N)(n3cc(C(N)=O)c(Nc4ccnc(F)c4)n3)CC2)CCO1` (stereo not shown) [Example 22-16, 1-{4-(cyanomethyl)-1-[(2,2-dimethyltetrahydro-2H-pyran-4-yl)methyl]piperidin-4-yl}-3-[(2-fluoropyridin-4-yl)amino]-1H-pyrazole-4-carboxamide], the IC50 on JAK1 amounted to 5 nM; at JAK2, 122 nM.

Take `N#CCC1(n2cc(C(N)=O)c(Nc3ccnc(F)c3)n2)CCN(Cc2cnn3ccccc23)CC1` [Example 22-17]: the IC50 was 17 nM at JAK1 and 503 nM at JAK2.

Consider `N#CCC1(n2cc(C(N)=O)c(Nc3ccnc(F)c3)n2)CCN(Cc2ccnc3[nH]ccc23)CC1` [Example 22-18, 1-[4-(cyanomethyl)-1-(1H-pyrrolo[2,3-b]pyridin-4-ylmethyl)piperidin-4-yl]-3-[(2-fluoropyridin-4-yl)amino]-1H-pyrazole-4-carboxamide], for which the IC50 on JAK1 stood at 2 nM; against JAK2 it was 72 nM.

For the molecule `N#CCC1(n2cc(C(N)=O)c(Nc3ccnc(F)c3)n2)CCN(Cc2ccco2)CC1` [Example 22-19, 1-[4-(cyanomethyl)-1-(furan-2-ylmethyl)piperidin-4-yl]-3-[(2-fluoropyridin-4-yl)amino]-1H-pyrazole-4-carboxamide], the IC50 at JAK1 came to 0.7 nM; against JAK2, 25 nM.

For the molecule `N#CCC1(n2cc(C(N)=O)c(Nc3ccnc(F)c3)n2)CCN(Cc2ccc3[nH]ccc3c2)CC1` [Example 22-20, 1-[4-(cyanomethyl)-1-(1H-indol-5-ylmethyl)piperidin-4-yl]-3-[(2-fluoropyridin-4-yl)amino]-1H-pyrazole-4-carboxamide], the figures for the IC50 at JAK1 and against JAK2 were 2 nM and 31 nM, respectively.

Take `N#CCC1(n2cc(C(N)=O)c(Nc3ccnc(F)c3)n2)CCN(Cc2cccc3cc[nH]c23)CC1` [Example 22-21, 1-[4-(cyanomethyl)-1-(1H-indol-7-ylmethyl)piperidin-4-yl]-3-[(2-fluoropyridin-4-yl)amino]-1H-pyrazole-4-carboxamide]: the IC50 at JAK1 turned out to be 0.7 nM; on JAK2, 41 nM.

`Cc1cnc(F)c(CN2CCC(CC#N)(n3cc(C(N)=O)c(Nc4ccnc(F)c4)n3)CC2)c1` [Example 22-22, 1-{4-(cyanomethyl)-1-[(2-fluoro-5-methylpyridin-3-yl)methyl]piperidin-4-yl}-3-[(2-fluoropyridin-4-yl)amino]-1H-pyrazole-4-carboxamide]: the results for the IC50 at JAK1 and on JAK2 were 0.4 nM and 13 nM, respectively.

Consider `N#CCC1(n2cc(C(N)=O)c(Nc3ccnc(F)c3)n2)CCN(Cc2cccnc2F)CC1` [Example 22-23, 1-{4-(cyanomethyl)-1-[(2-fluoropyridin-3-yl)methyl]piperidin-4-yl}-3-[(2-fluoropyridin-4-yl)amino]-1H-pyrazole-4-carboxamide], for which the figures for the IC50 at JAK1 and on JAK2 were 0.1 nM and 6 nM, respectively.

For `CC(C)(O)C1CC(CN2CCC(CC#N)(n3cc(C(N)=O)c(Nc4ccnc(F)c4)n3)CC2)C1` (stereo not shown) [Example 22-24, 1-[4-(cyanomethyl)-1-{[3-(1-hydroxy-1-methylethyl)cyclobutyl]methyl}piperidin-4-yl]-3-[(2-fluoropyridin-4-yl)amino]-1H-pyrazole-4-carboxamide], the IC50 at JAK1 is 100 nM; against JAK2, over 1500 nM.

For the molecule `N#CCC1(n2cc(C(N)=O)c(Nc3ccnc(F)c3)n2)CCN(Cc2cscn2)CC1` [Example 22-25, 1-[4-(cyanomethyl)-1-(1,3-thiazol-4-ylmethyl)piperidin-4-yl]-3-[(2-fluoropyridin-4-yl)amino]-1H-pyrazole-4-carboxamide], the IC50 at JAK1 was 6 nM; against JAK2 it was 208 nM.

As to `N#CCC1(n2cc(C(N)=O)c(Nc3ccnc(F)c3)n2)CCN(Cc2cocn2)CC1` [Example 22-26, 1-[4-(cyanomethyl)-1-(1,3-oxazol-4-ylmethyl)piperidin-4-yl]-3-[(2-fluoropyridin-4-yl)amino]-1H-pyrazole-4-carboxamide], the values for the IC50 at JAK1 and against JAK2 were 6 nM and 117 nM, respectively.

`Cc1cc(CN2CCC(CC#N)(n3cc(C(N)=O)c(Nc4ccnc(F)c4)n3)CC2)no1` [Example 22-27, 1-{4-(cyanomethyl)-1-[(5-methylisoxazol-3-yl)methyl]piperidin-4-yl}-3-[(2-fluoropyridin-4-yl)amino]-1H-pyrazole-4-carboxamide]: the results for the IC50 at JAK1 and against JAK2 were 6 nM and 157 nM, respectively.
